Tested on: LRRK2
Assay: Degradation of LRRK2 (immunoblots of treated cells)
Format: cell-based
Conditions: 448T cells, immunoblot, concentrations 0 to 1000 nM
Protocol: Example 7: Degradation of LRRK2
Cell lines: Mouse embryonic fibroblast (MEF) WT, LRRK2 homozygous knock-ins in MEFs [R1441C; VPS35N(D620N); G2019S].
Tested concentrations of LRRK2 degraders: 0 nM; 10 nM; 30 nM; 100 nM; 300 nM; 1000 nM.
Experimental time points: 1 h; 6 h; 24 h and 48 h.
Complete growth medium: DMEM supplemented with 10% Fetal Bovine Serum; 1% pen/strep; 1% L-Glutamine; 1% MEM Non-essential Amino Acid Solution; 1% sodium pyruvate.
Treatment: WT MEF, and cells containing mutant LRRK2 (R1441C, VPS35N and G2019S) cells were plated at equal density into 6-well plates in a final volume of 3 mL of complete growth medium/well. Degraders were reconstituted in DMSO and used at 1:1000 in cells i.e., 3 μL/3 mL. Treatment began when cells were >60% confluent, starting from the longest, 48 h time point, followed by 24 h, 6 h and finally 1 h.
Cell lysis: Media were aspirated, plates were placed on ice and cells were washed with DPBS. Fifty (50) microliters of an ice-cold lysis buffer containing 50 mM Tris-HCl, pH 7.5, 1% (v/v) Triton X-100, 1 mM EGTA, 1 mM sodium orthovanadate, 50 mM NaF, 0.1% (v/v) 2-mercaptoethanol, 10 mM 2-glycerophosphate, 5 mM sodium pyrophosphate, 0.1 μg/mL microcystin-LR (Enzo Life Sciences), 270 mM sucrose and complete EDTA-free protease inhibitor cocktail (Sigma-Aldrich Cat #11836170001) were added per well. Lysates were centrifuged at 20 817 g (14,000 rpm) for 15 min at 4° C. and supernatants were used to determine protein concentration using Bradford assay (Pierce™ Coomassie (Bradford) Protein Assay Kit, Thermo Scientific Cat #23200) and for Western blot analysis.
Western blot analysis: Cell lysates were mixed with 4× SDS-PAGE sample buffer [50 mM Tris —HCl, pH 6.8, 2% (w/v) SDS, 10% (v/v) glycerol, 0.02% (w/v) Bromophenol Blue and 1% (v/v) 2-mercaptoethanol] to a final total protein concentration of 1 μg/μL and heated at 95° C. for 5 min. […]

In the case of CC1(Oc2ccc3[nH]nc(-c4cc(N5CCN(CC6CN(c7ccc8c(c7)C(=O)N(C7CCC(=O)NC7=O)C8=O)C6)CC5)ncn4)c3c2)CC1 (stereo not drawn) [Compound 1, 2-(2,6-dioxopiperidin-3-yl)-5-(3-((4-(6-(5-(1-methylcyclopropoxy)-1H-indazol-3-yl)pyrimidin-4-yl)piperazin-1-yl)methyl)azetidin-1-yl)isoindoline-1,3-dione], the DC50 is reported as 33 nM, the Dmax is reported as 60% and the “degrader of LRRK2” value is reported as “potent degrader of LRRK2”.
